Experimental data: patent US20180200257A1, “METHODS FOR THE TREATMENT OF INFLAMMATORY DISORDERS” (Galapagos NV, priority 2015, published 2018)

Tested on: subjects with moderately to severely active RA who have an inadequate response to methotrexate (MTX)
Assay: Study 1 (add-on to MTX) - DAS28(CRP) scores
Assay type: in vivo, human
Design: key to DAS28(CRP) mean CFB (LOCF): change from baseline in DAS28(CRP) score (joints, CRP, 0-100 VAS)
Method: Double-blind, placebo-controlled add on study in subjects with moderately to severely active RA who have an inadequate response to methotrexate (MTX) (oral or parenteral).
595 subjects randomized to one of 6 dose regimens of Compound 1 (dosed as [Compound 1:HCl:3H2O]) (3 dose levels administered either once or twice daily) or placebo on top of each subject's stable dose of MTX.
Compound 1 (dosed as [Compound 1:HCl:3H2O]) is dosed for twelve weeks once daily (q.d.) (50 mg, 100 mg or 200 mg) or twice daily (b.i.d.) (25 mg, 50 mg or 100 mg); or placebo.
At Week 12, the subjects on placebo who have not achieved 20% improvement in swollen joint count (SJC66) and tender joint count (TJC68) are re-randomized automatically to receive Compound 1 (dosed as a [Compound 1:HCl:3H2O]) either at 100 mg q.d. or 50 mg b.i.d. doses in a blinded fashion; subjects on 50 mg q.d. who have not achieved 20% improvement in SJC66 and TJC68 will be assigned to 100 mg q.d. and subjects on 25 mg b.i.d. that have not achieved a 20% improvement in SJC66 and TJC68 will be assigned to 50 mg b.i.d. Subjects who switch treatment at week 12 are handled as if they discontinued at week 12 for the purpose of statistical analysis, whereas subjects in the other groups will maintain their randomized treatment until Week 24.
The (DAS28(CRP)) is a system developed and validated by the European League Against Rheumatism (EULAR) to measure the progress and improvement of rheumatoid arthritis and has been extensively validated (Wells et al., 2008). The DAS28(CRP) scoring includes a 28 tender and swollen joint count, CRP measurement from blood analysis, and a general health assessment on a visual analog scale (Fransen et al., 2003).
DAS28(CRP) values range from 2.0 to 10.0, and more particularly reflect the following status: • Remission: DAS28(CRP) ≤2.6 • Low Disease activity: 2.6 <DAS28(CRP) ≤3.2 • Moderate Disease Activity: 3.2 <DAS28(CRP) ≤5.1 • High Disease Activity: DAS28(CRP) >5.1
In practice, the DAS28(CRP) measurement involves the evaluation 28 different joints including in the measurement (proximal interphalangeal joints (10 joints), metacarpophalangeal joints (10), wrists (2), elbows (2), shoulders (2), and knees (2)). When looking at these joints, both the number of joints with tenderness upon touching and swelling are counted.
Secondly, C-reactive protein level is measured.
Finally, the patient makes a subjective assessment of disease activity during the preceding 7 days on a scale between 0 and 100, where 0 is “no activity” and 100 is “highest activity possible”.
The DAS28(CRP) score is then calculated as follows:
Firstly, the patient is asked to make a vertical mark on a 100 mm Visual Analog Scale (VAS) corresponding to their general health or global disease activity on a touch screen to measure the VAS value, which is used in the formula below.
Secondly, a swollen and tender joint examination is then performed on the patient. The swollen and tender joints are recorded. From this examination are obtained the total amount of swollen joints (SJC) and the total amount of tender joints (TJC), which are used in the formula below.
Thirdly, C-reactive protein (CRP) levels are measured.
Finally, the values obtained above (VAS, TJC28, SJC28, and CRP) are computed into the following Formula to obtain the DAS28(CRP) score.
DAS28(CRP)=0.56*√{square root over (TJC28)}+0.28√{square root over (SJC28)}+[…] ln(CRP+1)+0.014*VAS
The improvement (decreases) in the DAS28(CRP) scores for each patient group at weeks 1, 2, 4, 8 and 12 is shown in Table LXXXVII and Table LXXXVIII below, together with the Hommel-corrected p-value for the pairwise comparisons of each group with placebo.
The number of subjects (N) provided in each groups corresponds to the number of subjects starting the study in each group, and the DAS28 (CRP) data reported below corresponds to the responding subjects continuing for the entire 24 weeks on their initial treatment course.

[1] = 2 × 25 mg b.i.d., 12 weeks results
[2] = 2 × 25 mg b.i.d., 24 weeks results
[3] = 2 × 50 mg b.i.d., 12 weeks results
[4] = 2 × 50 mg b.i.d., 24 weeks results
[5] = 2 × 100 mg b.i.d., 12 weeks results
[6] = 2 × 100 mg b.i.d., 24 weeks results

With `O=C(Nc1nc2cccc(-c3ccc(CN4CCS(=O)(=O)CC4)cc3)n2n1)C1CC1` [Compound 1, cyclopropanecarboxylic acid {5-[4-(1,1-dioxo-thiomorpholin-4-ylmethyl)-phenyl]-[1,2,4]triazolo[1,5-a]pyridin-2-yl}-amide] the “DAS28(CRP) mean CFB (LOCF)” value (2 × 25 mg b.i.d., week 2, 12 weeks results) was −1.06, the “DAS28(CRP) mean CFB (LOCF)” value (2 × 25 mg b.i.d., week 2, 24 weeks results) was −1.06 and the “DAS28(CRP) mean CFB (LOCF)” value (2 × 25 mg b.i.d., week 4, 12 weeks results) was −1.45. For the same molecule, the “DAS28(CRP) mean CFB (LOCF)” value (2 × 25 mg b.i.d., week 4, 24 weeks results) was −1.45, the “DAS28(CRP) mean CFB (LOCF)” value (2 × 25 mg b.i.d., week 8, 12 weeks results) was −1.82 and the “DAS28(CRP) mean CFB (LOCF)” value (2 × 25 mg b.i.d., week 8, 24 weeks results) was −1.82. The “DAS28(CRP) mean CFB (LOCF)” value (2 × 25 mg b.i.d., week 12, 12 weeks results) was −1.88, the “DAS28(CRP) mean CFB (LOCF)” value (2 × 25 mg b.i.d., week 12, 24 weeks results) was −1.88 and the “DAS28(CRP) mean CFB (LOCF)” value (2 × 25 mg b.i.d., week 16, 24 weeks results) was −2.02. The “DAS28(CRP) mean CFB (LOCF)” value (2 × 25 mg b.i.d., week 20, 24 weeks results) was −2.07, the “DAS28(CRP) mean CFB (LOCF)” value (2 × 25 mg b.i.d., week 24, 24 weeks results) was −2.19 and the “% patients reaching low disease activity and/or remission at week 12 (LOCF)” value [1] was 28%. For the same molecule, the “% patients reaching low disease activity at week 12 (LOCF)” value [1] was 13%, the “% patients reaching remission at week 12 (LOCF)” value [1] was 15% and the “% patients reaching low disease activity and/or remission at week 24 (LOCF)” value [2] was 40%. The “% patients reaching low disease activity at week 24 (LOCF)” value [2] was 16%, the “% patients reaching remission at week 24 (LOCF)” value [2] was 23% and the “DAS28(CRP) mean CFB (LOCF)” value (2 × 25 mg b.i.d., Week 1, 12 weeks results) was −0.68. The “DAS28(CRP) mean CFB (LOCF)” value (2 × 25 mg b.i.d., Week 1, 24 weeks results) was −0.68, the “DAS28(CRP) mean CFB (LOCF)” value (2 × 50 mg b.i.d., week 2, 12 weeks results) was −1.22 and the “DAS28(CRP) mean CFB (LOCF)” value (2 × 50 mg b.i.d., week 2, 24 weeks results) was −1.22. The “DAS28(CRP) mean CFB (LOCF)” value (2 × 50 mg b.i.d., week 4, 12 weeks results) was −1.65, the “DAS28(CRP) mean CFB (LOCF)” value (2 × 50 mg b.i.d., week 4, 24 weeks results) was −1.63 and the “DAS28(CRP) mean CFB (LOCF)” value (2 × 50 mg b.i.d., week 8, 12 weeks results) was −1.93. The “DAS28(CRP) mean CFB (LOCF)” value (2 × 50 mg b.i.d., week 8, 24 weeks results) was −1.93, the “DAS28(CRP) mean CFB (LOCF)” value (2 × 50 mg b.i.d., week 12, 12 weeks results) was −2.10 and the “DAS28(CRP) mean CFB (LOCF)” value (2 × 50 mg b.i.d., week 12, 24 weeks results) was −2.10. For the same molecule, the “DAS28(CRP) mean CFB (LOCF)” value (2 × 50 mg b.i.d., week 16, 24 weeks results) was −2.37, the “DAS28(CRP) mean CFB (LOCF)” value (2 × 50 mg b.i.d., week 20, 24 weeks results) was −2.40 and the “DAS28(CRP) mean CFB (LOCF)” value (2 × 50 mg b.i.d., week 24, 24 weeks results) was −2.40. The “% patients reaching low disease activity and/or remission at week 12 (LOCF)” value [3] was 29%, the “% patients reaching low disease activity at week 12 (LOCF)” value [3] was 11% and the “% patients reaching remission at week 12 (LOCF)” value [3] was 18%. The “% patients reaching low disease activity and/or remission at week 24 (LOCF)” value [4] was 38%, the “% patients reaching low disease activity at week 24 (LOCF)” value [4] was 14% and the “% patients reaching remission at week 24 (LOCF)” value [4] was 24%. For the same molecule, the “DAS28(CRP) mean CFB (LOCF)” value (2 × 50 mg b.i.d., Week 1, 12 weeks results) was −0.84, the “DAS28(CRP) mean CFB (LOCF)” value (2 × 50 mg b.i.d., Week 1, 24 weeks results) was −0.84 and the “DAS28(CRP) mean CFB (LOCF)” value (2 × 100 mg b.i.d., week 2, 12 weeks results) was −1.84. For the same molecule, the “DAS28(CRP) mean CFB (LOCF)” value (2 × 100 mg b.i.d., week 2, 24 weeks results) was −1.84, the “DAS28(CRP) mean CFB (LOCF)” value (2 × 100 mg b.i.d., week 4, 12 weeks results) was −2.28 and the “DAS28(CRP) mean CFB (LOCF)” value (2 × 100 mg b.i.d., week 4, 24 weeks results) was −2.24. The “DAS28(CRP) mean CFB (LOCF)” value (2 × 100 mg b.i.d., week 8, 12 weeks results) was −2.72, the “DAS28(CRP) mean CFB (LOCF)” value (2 × 100 mg b.i.d., week 8, 24 weeks results) was −2.72 and the “DAS28(CRP) mean CFB (LOCF)” value (2 × 100 mg b.i.d., week 12, 12 weeks results) was −2.84. The “DAS28(CRP) mean CFB (LOCF)” value (2 × 100 mg b.i.d., week 12, 24 weeks results) was −2.84, the “DAS28(CRP) mean CFB (LOCF)” value (2 × 100 mg b.i.d., week 16, 24 weeks results) was −3.06 and the “DAS28(CRP) mean CFB (LOCF)” value (2 × 100 mg b.i.d., week 20, 24 weeks results) was −3.02. For the same molecule, the “DAS28(CRP) mean CFB (LOCF)” value (2 × 100 mg b.i.d., week 24, 24 weeks results) was −3.23, the “% patients reaching low disease activity and/or remission at week 12 (LOCF)” value [5] was 50% and the “% patients reaching low disease activity at week 12 (LOCF)” value [5] was 14%. The “% patients reaching remission at week 12 (LOCF)” value [5] was 36%, the “% patients reaching low disease activity and/or remission at week 24 (LOCF)” value [6] was 64% and the “% patients reaching low disease activity at week 24 (LOCF)” value [6] was 24%. The “% patients reaching remission at week 24 (LOCF)” value [6] was 40%, the “DAS28(CRP) mean CFB (LOCF)” value (2 × 100 mg b.i.d., Week 1, 12 weeks results) was −1.33 and the “DAS28(CRP) mean CFB (LOCF)” value (2 × 100 mg b.i.d., Week 1, 24 weeks results) was −1.33.
